Patent US20240373829A1, “GENETIC RESISTANCE TO VIRAL DISEASE IN SALMONID FISH” (THE UNIVERSITY COURT OF THE UNIVERSITY OF EDINBURGH, priority 2021, published 2024)

Columns and labels:
[1] = tested on: SHK-1 cells; assay: MLN4924 cell viability in SHK-1 cells; format: cell-based, Atlantic salmon; conditions: MLN4924 treatment compared to DMSO-treated controls
Method: (§1) Lyophilised MLN4924 (pevonedistat) was resuspended in DMSO. MLN4924 was titrated for cytotoxicity on CHSE-214 and SHK-1 cells. SHK-1 or CHSE-214 cells were seeded at 80% confluency and treated with 0 (DMSO only), 100 nM, 1 μM or 5 μM MLN4924 for 24 hours prior to inoculation with IPNV at an MOI of 0.01. The impact of the MLN4924 on cell viability was assessed by sampling at 24, 48, 72, and 96 hpi and comparing cell survival in all challenged groups (including the DMSO control) versus the unchallenged control at the same timepoint.

[2] = tested on: DNA and RNA viruses; conditions: in vitro, multitude of DNA and RNA viruses (ref 15); cited from earlier work
[3] = tested on: IPNV; assay: Supernatant infectivity assay (TCID50) of MLN4924 and IPNV-treated RTG-2 cells; format: cell-based, infectious pancreatic necrosis virus
Method: Wild type RTG-2 cells were seeded in 4× quadruplicates in 24-well plates and were allowed to settle for 24 hours. The four quadruplicates were then treated with DMSO-only, 0.1, 1 and 5 uM of MLN4924, respectively. 24 hours after the MLN4924 treatment, the inhibitor inoculum was removed and IPNV in a dose of 10-5 TCID50/mL was inoculated in the cells, along with the four doses of MLN4924. Supernatants were collected at 48 and 72 hpi, and were stored at −80° C. until use.
TCID50 (Median Tissue Culture Infectious Dose) assay was used to assess the titer of the viral supernatants, harvested from the MLN4924 and IPNV-treated cells at 72 hpi. Firstly, 20,000 cells/well were seeded in wells of a 96-well plate (in four rows of 10 wells for each supernatant, for 4 replicates) and were allowed to settle and grow overnight. The following day, the media was removed with a multichannel pipette and replaced with serial 10-fold dilutions (starting from the neat original viral supernatants up to 10^−7 dilution). The latter were prepared in 2% FBS media (with penicillin streptomycin). The seeded cells were inoculated with these serial dilutions (four replicates per virus dilution, 100 uL/96-well). The last two wells of each row were used as controls, meaning that no virus was added there, only media. The 96-well plate was incubated at 15° C. for the duration of the experiment. The Cytopathic Effect (CPE) of the viral infection was assessed using CellTiter-Glo® Luminescent Cell Viability Assay (Promega, Madison, USA), at 30 hpi. The 50% endpoint titer was further calculated using the Reed and Muench method^16.
MLN4924 inhibitor was used to inhibit nae1 activity. Four supernatants of each dose group collected from the MLN4924 and IPNV-treated cells at 72 hpi were tested in two independent TCID50 infectivity assays followed by a cell viability assay at 30 hpi and use of the Reed and Muench method to analyze the cytopathic effect present in the wells.

[4] = tested on: IPNV; assay: IPNV viral load (VP2 qRT-PCR) in MLN4924-treated SHK-1 cells; format: cell-based, infectious pancreatic necrosis virus; conditions: 100 nM MLN4924 24 hours prior to infection, during the course of infection, vs DMSO only
Method: To evaluate the viral load in cells, relative transcript level of IPNV VP2 to ef1a in the total RNAs was analysed by qRT-PCR using Luna Universal One-Step RT-qPCR reagent (NEB, Ipswich, USA) and LightCycler 480 Instrument (Roche, Basel, Switzerland) in duplicates. Each reaction consisted of 0.5 μL RNAs, 1× Reaction Mix, 1× Enzyme Mix, 0.4 μM each primer (Supplementary Table 4) and nuclease-free water up to 10 μL. The thermocycling initiated with reverse transcription at 55° C. for 10 min and initial denaturation at 95° C. for 1 min, followed by 40 cycles of denaturation at 95° C. for 10 sec and extension at 60° C. for 30 sec with plate read, and melt curve analysis. Efficiency and linearity (R^2) of each primer pair were checked using serial dilution of total RNAs in duplicates. The relative viral transcript level of IPNV VP2 versus ef1a in the KO SHK-1 cells compared to wild type SHK-1 cells at each timepoint was calculated using 2^−ΔΔCT.
as §1, with “SHK-1 or CHSE-214 cells were seeded at 80% confluency and treated with 0 (DMSO only), 100 nM, 1 μM or 5 μM MLN4924 for 24 hours prior to inoculation with IPNV at an MOI of 0.01.” left out

[5] = tested on: IPNV viral proteins; assay: Western blot of IPNV viral proteins from MLN4924-treated SHK-1 cells; format: cell-based, infectious pancreatic necrosis virus; conditions: SHK-1 cells treated with MLN4924 or DMSO, 120 h, MOI 0.01
Method: To evaluate the infectivity of viral output, cells and supernatant were harvested at 120 hpi and assessed by TCID50 on naïve CHSE-214 cells. For semi-quantification of viral protein output, western blot against viral proteins was performed. At 120 hpi, supernatant from a 150 mm dishes containing SHK-1 cells treated with either 100 nM MLN4924 or DMSO for 24 hours before infection with IPNV at an MOI of 0.01 was collected, sterile filtered, and ultra-centrifuged at 22000 x g for 1 hour. The ultra-centrifuged virus pellet from the supernatant was resuspended in Laemmli buffer. The cell-associated virus was also analysed by harvesting cells in Laemmli buffer. These samples were separated by PAGE (4-15% Mini-Protean, BIORAD), transferred onto nitrocellulose membrane, and the viral protein was visualised using a monoclonal antibody that recognises all IPN viral proteins, and secondary LICOR antibodies.

[6] = tested on: RTG-2 cells; assay: MLN4924 cytotoxicity test (cell viability assay) in RTG-2 cells; format: cell-based, rainbow trout (Oncorhynchus mykiss); conditions: wild type RTG-2 cells; 0.1, 1 and 5 uM; 24, 48, 72 and 96 hours post treatment
Method: Initially, four different concentrations of MLN4924 0 (DMSO-only), 0.1, 1 and 5 uM, were tested in fresh RTG-2 cells to investigate if they exerted toxicity in wild type RTG-2 cells. A cell viability assay was used to assess any present cytopathic effect at four different time points: 24, 48, 72 and 96 hours post treatment with the four different concentrations of the inhibitor.

## NS(=O)(=O)OC[C@@H]1C[C@@H](n2ccc3c(N[C@H]4CCc5ccccc54)ncnc32)C[C@@H]1O [MLN4924]
[1]
  cell viability: no associated decrease in cell viability
[2]
  anti-viral activity: broad-acting anti-viral activity
[3]; 0.1 μM MLN4924, 72 hpi supernatants
  productive IPNV viral output (TCID50): effect similar to the DMSO-only cell group
[3]; 1 μM MLN4924, 72 hpi supernatants, vs DMSO-only
  productive IPNV viral output (TCID50): marked drop
[3]; 5 μM MLN4924, 72 hpi supernatants, vs DMSO-only
  productive IPNV viral output (TCID50): marked drop
[4]
  IPNV RNA copy number: little difference
[5]
  abundance of IPNV viral proteins (western blot): notable decrease
[6]
  cytotoxicity (cell viability assay): none of the doses were cytotoxic
